According to ChEMBL document CHEMBL4406923, “New Potent DOT1L Inhibitors for in Vivo Evaluation in Mouse” (ACS Med Chem Lett, 2019):
Activity calls are given as the source filed them. No cut-off for these calls is given here.

How the values were obtained:
[1] = Drug concentration in C57BL/6 mouse blood at 300 mg/kg, po measured after 24 hrs; type: ADME, organism-based; details: read-out: Drug uptake
[2] = Toxicity in C57BL/6 mouse xenografted with human MV4-11 cells at 300 mg/kg, po; type: organism-based; details: in vivo
MV4-11 = assay: Antitumor activity against human MV4-11 cells xenografted in C57BL/6 mouse assessed as reduction in tumor growth at <6 fold 300 mg/kg, po relative to control; type: functional
[3] = target: T1, Histone-arginine methyltransferase CARM1 (Homo sapiens) (UniProt Q86X55); assay: Inhibition of CARM1 (unknown origin) at <5 uM using histone H3 peptide (1 to 21) as substrate in presence of co-factor SAM by LC-MS analysis
T1 sequence (whole entry): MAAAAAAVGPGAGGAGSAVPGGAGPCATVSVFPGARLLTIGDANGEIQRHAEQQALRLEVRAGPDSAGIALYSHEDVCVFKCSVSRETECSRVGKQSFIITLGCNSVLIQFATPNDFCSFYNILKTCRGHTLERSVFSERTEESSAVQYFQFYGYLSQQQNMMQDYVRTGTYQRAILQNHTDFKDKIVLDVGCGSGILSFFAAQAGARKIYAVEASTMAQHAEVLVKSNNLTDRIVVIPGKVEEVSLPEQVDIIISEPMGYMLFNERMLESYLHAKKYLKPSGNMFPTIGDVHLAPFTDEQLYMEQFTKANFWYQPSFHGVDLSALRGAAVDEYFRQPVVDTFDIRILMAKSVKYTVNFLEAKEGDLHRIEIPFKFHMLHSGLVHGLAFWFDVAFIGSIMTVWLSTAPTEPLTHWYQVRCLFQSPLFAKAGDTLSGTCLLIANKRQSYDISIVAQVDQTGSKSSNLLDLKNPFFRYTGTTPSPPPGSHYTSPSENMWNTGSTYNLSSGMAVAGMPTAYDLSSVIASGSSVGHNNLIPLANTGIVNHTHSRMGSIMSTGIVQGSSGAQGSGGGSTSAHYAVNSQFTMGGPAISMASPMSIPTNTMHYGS

[4] = target: T2, Histone-lysine N-methyltransferase EHMT2 (Homo sapiens) (UniProt Q96KQ7); assay: Inhibition of G9a (unknown origin) at <5 uM using histone H3 peptide (1 to 21) as substrate in presence of co-factor SAM by LC-MS analysis
T2 sequence (whole entry): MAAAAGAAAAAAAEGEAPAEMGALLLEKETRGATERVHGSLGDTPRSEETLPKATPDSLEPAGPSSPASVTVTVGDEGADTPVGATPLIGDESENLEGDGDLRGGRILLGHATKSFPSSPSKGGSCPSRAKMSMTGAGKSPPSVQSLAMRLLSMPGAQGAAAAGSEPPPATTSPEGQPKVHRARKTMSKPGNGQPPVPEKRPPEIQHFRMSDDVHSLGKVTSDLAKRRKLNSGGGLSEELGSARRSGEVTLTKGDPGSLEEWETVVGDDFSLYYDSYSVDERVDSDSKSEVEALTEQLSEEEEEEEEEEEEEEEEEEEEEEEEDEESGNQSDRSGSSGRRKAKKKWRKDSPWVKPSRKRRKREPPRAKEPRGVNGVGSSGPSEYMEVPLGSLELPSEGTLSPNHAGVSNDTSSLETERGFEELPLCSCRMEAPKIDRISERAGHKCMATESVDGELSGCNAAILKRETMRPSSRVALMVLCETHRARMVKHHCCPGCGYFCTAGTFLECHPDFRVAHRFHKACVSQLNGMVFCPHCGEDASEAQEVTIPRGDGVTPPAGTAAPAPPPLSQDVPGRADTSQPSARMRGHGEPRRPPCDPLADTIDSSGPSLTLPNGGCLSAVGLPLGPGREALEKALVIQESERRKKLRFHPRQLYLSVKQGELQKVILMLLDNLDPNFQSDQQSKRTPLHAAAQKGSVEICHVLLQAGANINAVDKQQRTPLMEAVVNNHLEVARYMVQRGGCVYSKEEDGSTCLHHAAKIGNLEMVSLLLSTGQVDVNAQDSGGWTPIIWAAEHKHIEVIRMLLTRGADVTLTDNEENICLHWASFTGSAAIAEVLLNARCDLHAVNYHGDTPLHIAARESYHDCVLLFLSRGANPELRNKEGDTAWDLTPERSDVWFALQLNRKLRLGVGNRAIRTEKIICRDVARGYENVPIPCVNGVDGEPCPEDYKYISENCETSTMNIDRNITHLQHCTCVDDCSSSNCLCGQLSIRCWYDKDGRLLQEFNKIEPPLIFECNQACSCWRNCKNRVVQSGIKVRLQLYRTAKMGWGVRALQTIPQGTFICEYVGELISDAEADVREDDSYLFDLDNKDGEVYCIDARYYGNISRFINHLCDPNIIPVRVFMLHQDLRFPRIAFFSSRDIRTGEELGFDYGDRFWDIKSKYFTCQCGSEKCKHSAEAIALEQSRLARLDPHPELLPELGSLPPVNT

Mus musculus = assay: In vivo inhibition of DOT1L in C57BL/6 mouse xenografted with human MV4-11 cells assessed as reduction in HOXA9 gene expression at <6 fold 300 mg/kg, po relative to control; type: functional
Homo sapiens = species on record: Homo sapiens; assay: Inhibition of PRC2 complex of human full-length N-terminal FLAG-tagged EZH2/EED/SUZ12/AEBP2/RbAp48 expressed in baculovirus expression system at <5 uM using histone H3 peptide (21 to 44) as substrate in presence of co-factor SAM by LC-MS analysis
[5] = Drug concentration in C57BL/6 mouse blood at 300 mg/kg, po administered daily for 7 days; type: ADME, organism-based; details: in vivo, 168 h
[6] = target: MLL1/ASH2L/RBBP5/WDR5 complex (Homo sapiens) (UniProt P61964+Q03164+Q9UBL3+Q15291); assay: Inhibition of MLL (MLL/ASH2L/RBBP5/WDR5) (unknown origin) at <5 uM using histone H3 peptide (1 to 21) as substrate in presence of co-factor SAM by LC-MS analysis; type: protein-complex assay
[7] = target: T3, Histone-lysine N-methyltransferase SETD7 (Homo sapiens) (UniProt Q8WTS6); assay: Inhibition of Set7/9 (unknown origin) at <5 uM using H3 (1 to 21) as substrate in presence of co-factor SAM by LC-MS analysis
T3 sequence (whole entry): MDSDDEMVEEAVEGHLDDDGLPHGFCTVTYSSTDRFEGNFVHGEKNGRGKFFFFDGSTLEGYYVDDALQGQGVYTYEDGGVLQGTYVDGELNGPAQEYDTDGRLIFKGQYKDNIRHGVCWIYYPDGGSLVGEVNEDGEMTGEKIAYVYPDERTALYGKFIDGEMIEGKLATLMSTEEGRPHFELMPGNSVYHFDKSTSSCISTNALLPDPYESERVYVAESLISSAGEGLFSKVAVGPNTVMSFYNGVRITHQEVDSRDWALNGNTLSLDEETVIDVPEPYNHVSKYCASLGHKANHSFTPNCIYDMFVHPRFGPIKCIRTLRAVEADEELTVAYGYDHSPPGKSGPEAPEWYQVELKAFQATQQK

concentration at 24 h [1]: 4 to 8 µM | inhibition [3]: inactive | inhibition [4]: inactive | inhibition (Homo sapiens): inactive | Drug uptake [5]: Active | inhibition [6]: inactive | inhibition [7]: inactive
Compound: COc1nc(Nc2cc(S(C)(=O)=O)ccc2N[C@@H](c2cccc3c2OC(F)(F)O3)c2ncccc2Cl)nc(N2CCNCC2)n1
Activity [2]: Toxic | fold change (FC) (MV4-11): <0.5 | fold change (FC) (Mus musculus): <0.5
